In the assay the test system is recurrent glioblastoma. As to the kind of experiment: Treatment of a patient with recurrent glioblastoma with temozolomide plus PTK787. The settings on record: one patient with histologically confirmed recurrent glioblastoma; temozolomide 50 mg/m^2 daily for 5 consecutive days every 28 days in addition to continuous daily dose of 1000 mg PTK787; observed during the third cycle. It is filed as in vivo, human. The procedure: Suitable clinical studies are, for example, randomized, double-blind, placebo-controlled, parallel studies in patients with recurrent glioblastoma, but also dose escalation studies. […] Tumor assessment in the form of dynamic contrast-enhanced MRI is also a suitable approach to determine the effect of the COMBINATION OF THE INVENTION. In a suitable study design, patients are receiving, for example, temozolomide in a dosage of 50 to 250 mg/m^2 daily, for example, 200 mg/m^2 daily, for 5 consecutive days every 28 days or placebo in addition to a continuous daily dose of 500 to 2000 mg of a compound of formula I, e.g., 500, 1000, 1500 or 2000 mg of PTK787 or placebo.

For the molecule `Clc1ccc(Nc2nnc(Cc3ccncc3)c3ccccc23)cc1` [PTK787], the “disease status observed under treatment” value was “stable disease”.

Values taken from patent US7754716B2, “Combination comprising a vasculostatic compound and an alkylating agent for the treatment of a tumor” (Novartis AG, priority 2002, dated 2010).
